Key:
Friend-Leukämie-Virus [1] = assay: Friend leukaemia virus (FLV) infection in the mouse, oral application via drinking water (Tabelle II); assay type: in vivo, Maus; conditions: for n* Anzahl überlebende Mäuse / Hg: oral; for Hg: haemoglobin content of blood
Description: Blockierung der Reverse Transkriptase-(RT)-Aktivität untersucht wird, erscheint die Wahl eines solchen Ersatzmodelles gerechtfertigt. Im vorliegenden Fall wurde die Infektion der Maus mit dem Friend-Leukämie-Virus gewählt. Dazu wurden normale Labormäuse (NMRI = Naval Medical Research Institute) durch intravenöse Injektion mit Friend-Virus enthaltendem Mäuseserum infiziert. […] Die Behandlung erfolgte über 10 Tage, beginnend 48 Stunden nach der Infektion. Am 14. Versuchstag wurden die Tiere durch Luxation der Halswirbel getötet und geöffnet. Die Milz wurde entnommen und gewogen. Als Meßparameter der therapeutischen Wirksamkeit wurde das Milzgewicht der behandelten Tiere mit dem der unbehandelten Infektionskontrolle in Relation gesetzt.

Friend-Leukämie-Virus [2] = assay: Friend leukaemia virus (FLV) infection in the mouse, i.p. application (Tabelle I); assay type: in vivo, Maus; conditions: for rel. Milzgewicht: NMRI mice, treatment over 10 days starting 48 h after infection, spleen weighed day 14; for n* Anzahl überlebende Mäuse: groups of 10 mice
Description: Blockierung der Reverse Transkriptase-(RT)-Aktivität untersucht wird, erscheint die Wahl eines solchen Ersatzmodelles gerechtfertigt. Im vorliegenden Fall wurde die Infektion der Maus mit dem Friend-Leukämie-Virus gewählt. Dazu wurden normale Labormäuse (NMRI = Naval Medical Research Institute) durch intravenöse Injektion mit Friend-Virus enthaltendem Mäuseserum infiziert. Bei den unbehandelten Kontrolltieren entwickelte sich als Symptom der Infektion innerhalb von 2 Wochen eine deutliche Vergrößerung von Milz und Leber. Die Behandlung erfolgte über 10 Tage, beginnend 48 Stunden nach der Infektion. Am 14. Versuchstag wurden die Tiere durch Luxation der Halswirbel getötet und geöffnet. Die Milz wurde entnommen und gewogen. Als Meßparameter der therapeutischen Wirksamkeit wurde das Milzgewicht der behandelten Tiere mit dem der unbehandelten Infektionskontrolle in Relation gesetzt.
Während bei uninfizierten ausgewachsenen Labormäusen (20 - 24 g Körpergewicht) die Milz etwa 1 % des Körpergewichtes oder weniger wog, erreichte bei infizierten Tieren die Milz am Ende des Versuchs etwa 10 % des Körpergewichts.
Tabelle I zeigt die Ergebnisse der Wirksamkeitstests bei der Friend-Leukämie-Virusinfektion in der Maus bei intraperitonealer Verabreichung der erfindungsgemäßen Verbindungen. Als Kontrolle diente eine Gruppe von Mäusen, die unbehandelt blieben.
Zum Vergleich wurde eine weitere Gruppe von Mäusen mit Suramin behandelt. Tabelle I verdeutlicht, daß die erfindungsgemäßen Verbindungen besser wirken als Suramin, bei vergleichbarer oder geringerer Beeinträchtigung des Hämaglobingehaltes des Blutes. Bei Verabreichung der erfindungsgemäßen Verbindungen überlebten alle Mäuse die Behandlung, wohingegen bei der Verabreichung von Suramin 3 von 10 Mäusen starben. Weiterhin war der Behandlungserfolg, erkennbar an der Verringerung der Milzschwellung, bei Verabreichung aller getesteten Verbindungen größer als bei der Verabreichung von Suramin.

[3] = Qualitative solubility noted in the preparation examples; assay type: physicochemical
[4] = 0.05 mg/ml in drinking water, oral (10 x 0.17-0.18 mg/Maus)
[5] = 0.10 mg/ml in drinking water, oral (10 x 0.33-0.36 mg/Maus)
[6] = 0.50 mg/ml in drinking water, oral (10 x 1.67-1.77 mg/Maus)

SMILES: Cc1cn([C@H]2C[C@H](N=[N+]=[N-])[C@@H](CO)O2)c(=O)[nH]c1=O [AZT, Azidothymidin, reference compound]
- n* Anzahl überlebende Mäuse (Friend-Leukämie-Virus [1]; 0.05 mg/ml in drinking water): 10
- Hg (Friend-Leukämie-Virus [1]; 0.05 mg/ml in drinking water): 14.1 g/%
- n* Anzahl überlebende Mäuse (Friend-Leukämie-Virus [1]; 0.10 mg/ml in drinking water): 10
- Hg (Friend-Leukämie-Virus [1]; 0.10 mg/ml in drinking water): 12.7 g/%

SMILES: c1cc(CSc2ncnc3[nH]cnc23)ccn1 [Präparat 1, 6-(4-pyridylmethyl)-mercaptopurin]
- n* Anzahl überlebende Mäuse (Friend-Leukämie-Virus [1]; 0.05 mg/ml in drinking water): 10
- rel. Milzgewicht (Friend-Leukämie-Virus [1]; [4]): 7.01 ± 2.99 % Körpergewicht
- n* Anzahl überlebende Mäuse (Friend-Leukämie-Virus [1]; 0.10 mg/ml in drinking water): 10
- rel. Milzgewicht (Friend-Leukämie-Virus [1]; [5]): 4.80 ± 2.74 % Körpergewicht
- n* Anzahl überlebende Mäuse (Friend-Leukämie-Virus [1]; 0.50 mg/ml in drinking water): 10
- rel. Milzgewicht (Friend-Leukämie-Virus [1]; [6]): 1.66 ± 1.25 % Körpergewicht
- Hg (Friend-Leukämie-Virus [1]; 0.50 mg/ml in drinking water): 11.3 g/%
- rel. Milzgewicht (Friend-Leukämie-Virus [2]; 10 x 0.1 mg/Maus i.p.): 5.23 ± 2.69 % Körpergewicht
- n* Anzahl überlebende Mäuse (Friend-Leukämie-Virus [2]; 10 x 0.1 mg/Maus i.p.): 10
- rel. Milzgewicht (Friend-Leukämie-Virus [2]; 10 x 1.0 mg/Maus i.p.): 2.08 ± 0.44 % Körpergewicht
- n* Anzahl überlebende Mäuse (Friend-Leukämie-Virus [2]; 10 x 1.0 mg/Maus i.p.): 10
- Hg (Friend-Leukämie-Virus [2]; 10 x 1.0 mg/Maus i.p., haemoglobin content of blood): 13.2 g/ %
- Löslichkeit in Wasser ([3]; free base): unlöslich
- Löslichkeit in allen säurehaltigen Flüssigkeiten ([3]; free base): gut löslich

SMILES: c1cncc(CSc2ncnc3[nH]cnc23)c1 [Präparat 2, 6-(3-Pyridylmethyl)-mercaptopurin]
- rel. Milzgewicht (Friend-Leukämie-Virus [1]; [4]): 5.76 ± 2.72 % Körpergewicht
- rel. Milzgewicht (Friend-Leukämie-Virus [1]; [5]): 1.46 ± 1.00 % Körpergewicht
- rel. Milzgewicht (Friend-Leukämie-Virus [1]; [6]): 0.90 ±1.12 % Körpergewicht
- rel. Milzgewicht (Friend-Leukämie-Virus [2]; 10 x 0.1 mg/Maus i.p.): 5.46 ± 3.32 % Körpergewicht
- rel. Milzgewicht (Friend-Leukämie-Virus [2]; 10 x 1.0 mg/Maus i.p.): 1.84 ± 0.82 % Körpergewicht

SMILES: C=CCSc1ncnc2[nH]cnc12 [Präparat 3, 6-(2-propenyl)-mercaptopurin]
- rel. Milzgewicht (Friend-Leukämie-Virus [1]; [4]): 4.52 ± 2.28 % Körpergewicht
- rel. Milzgewicht (Friend-Leukämie-Virus [1]; [5]): 1.51 ± 1.26 % Körpergewicht
- rel. Milzgewicht (Friend-Leukämie-Virus [2]; 10 x 0.1 mg/Maus i.p.): 5.86 ± 1.84 % Körpergewicht
- rel. Milzgewicht (Friend-Leukämie-Virus [2]; 10 x 1.0 mg/Maus i.p.): 1.37 ± 0.38 % Körpergewicht
- Löslichkeit in Alkohol, heißem Wasser und Polyethylenglykol [3]: leicht löslich
- Löslichkeit in kaltem Wasser [3]: Schwer löslich

SMILES: Cc1ccc(C(=O)Nc2ccc(S(=O)(=O)O)c3cc(S(=O)(=O)O)cc(S(=O)(=O)O)c23)cc1NC(=O)c1cccc(NC(=O)Nc2cccc(C(=O)Nc3cc(C(=O)Nc4ccc(S(=O)(=O)O)c5cc(S(=O)(=O)O)cc(S(=O)(=O)O)c45)ccc3C)c2)c1 [Suramin, reference compound]
- rel. Milzgewicht (Friend-Leukämie-Virus [1]; 10 x 1.00 mg/Maus i.p., comparison group within the Tabelle II experiment): 4.50 ± 2.22 % Körpergwicht
- rel. Milzgewicht (Friend-Leukämie-Virus [2]; 10 x 1.0 mg/Maus i.p.): 4.54 ± 1.86 % Körpergewicht
- Mäuse starben (Friend-Leukämie-Virus [2]; in vivo, ip): 3
